These results are taken from US20240262819A1, “NOVEL COMPOUNDS HAVING INHIBITORY ACTIVITY AGAINST GLUCOSYLCERAMIDE SYNTHASE OR PHARMACEUTICALLY ACCEPTABLE SALT THEREOF, PROCESSES FOR PREPARING THE SAME, AND PHARMACEUTICAL COMPOSITIONS COMPRISING THE SAME” (YUHAN CORPORATION, priority 2021, published 2024).

Read-outs that look alike come from different tables or passages of the source.

Data set [1] has as its target glucosylceramide synthase (GCS) (Homo sapiens (Human), UniProt Q16739). Nature of the data set: Evaluation of inhibitory activities against GCS (A549 cell lysate, NBD C6-ceramide, HPLC). Type of data set: biochemical. The procedure, abridged:
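GCS activity in A549 cell lysate (50 mM HEPES, pH 7.3) with NBD C6-ceramide, reacted 90 min at 37 °C. Lipids were chloroform/methanol-extracted and separated by normal-phase HPLC with fluorescence detection (ex 470/em 530 nm). GlcCer fraction of peak area was normalized between DMSO and ibiglustat, and IC50 obtained by curve fitting.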

The subject of data set [2] is GM1 production in Jurkat cells. Kind of data set: cells. It is filed as cell-based.
The nature of data set [3]: Evaluation of blood-brain barrier (BBB) permeability through oral administration. It is filed as in vivo, mice. Conditions: mice, oral, dose 30 mg/kg, 4 hr; for Kp at 4 h / concentration at 4 h: mouse, in vivo; for Kp at 4 h: read-out: Mean brain-plasma drug ratio at 4 hr. Summed up:
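Mice dosed orally at 10 or 30 mg/10 ml/kg, suspended in 0.5% methyl cellulose with 0.2% Tween 80. Plasma and forebrain homogenate taken 4 hours post-dose, drug measured by LC-MS/MS; brain/plasma ratio calculated from tissue concentrations.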

Where [4] appears, read: read-out: Mean drug concentrations in brain tissue at 4 hr.
The mark [5] stands for this setting: read-out: Mean drug concentrations in plasma at 4 hr.
The mark [6] stands for this setting: % GCS activity, A549 cell lysate, 37° C. for 90 minutes, read-out: IC50.

Chain of glucosylceramide synthase (GCS) (Q16739 whole entry): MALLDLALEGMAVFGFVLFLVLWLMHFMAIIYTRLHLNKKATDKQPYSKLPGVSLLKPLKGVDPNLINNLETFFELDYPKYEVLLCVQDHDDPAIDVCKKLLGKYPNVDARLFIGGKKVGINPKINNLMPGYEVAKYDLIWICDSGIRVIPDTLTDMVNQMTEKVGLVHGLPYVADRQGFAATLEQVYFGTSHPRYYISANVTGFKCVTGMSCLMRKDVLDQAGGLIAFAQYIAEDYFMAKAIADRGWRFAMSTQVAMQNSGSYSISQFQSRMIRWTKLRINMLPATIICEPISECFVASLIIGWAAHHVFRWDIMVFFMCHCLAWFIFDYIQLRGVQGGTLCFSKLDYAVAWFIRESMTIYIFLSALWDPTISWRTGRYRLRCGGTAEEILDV

Consider `CC(C)Oc1ccc(-c2cc3c(cc2F)[C@H](NC(=O)O[C@@H]2CN4CCC2CC4)C(C)(C)CC3)cc1F` [Example 198, (S)-quinuclidin-3-yl((R)-7-fluoro-6-(3-fluoro-4-isopropoxyphenyl)-2,2-dimethyl-1,2,3,4-tetrahydronaphthalen-1-yl)carbamate], for which the IC50 in data set [1] was found to be 0.34 nM; in data set [2] (Homo sapiens, Jurkat, 72 h), 3.2 nM. Further, the Kp at 4 h in data set [3] turned out to be 3.46. Besides, the concentration at 4 h in data set [3] (setting [4]) amounted to 5120 ng/g; in data set [3] (setting [5]), 1480 ng/mL.
For the molecule `COc1ccc(-c2cc3c(cc2F)[C@H](NC(=O)O[C@@H]2CN4CCC2CC4)C(C)(C)CC3)c(F)c1` [Example 194, (S)-quinuclidin-3-yl((R)-7-fluoro-6-(2-fluoro-4-methoxyphenyl)-2,2-dimethyl-1,2,3,4-tetrahydronaphthalen-1-yl)carbamate], the IC50 in data set [1] came to 0.41 nM; in data set [2] (Homo sapiens, Jurkat, 72 h), 4.6 nM. Further, in data set [3], the Kp at 4 h stood at 1.67. Moreover, the concentration at 4 h in data set [3] (setting [4]) was found to be 2100 ng/g; in data set [3] (setting [5]), 1260 ng/mL.
As for `CCCOc1c(C)cc(-c2ccc3c(c2)CCC(C)(C)[C@H]3NC(=O)O[C@@H]2CN3CCC2CC3)cc1C` [Example 148, (S)-quinuclidin-3-yl((R)-6-(3,5-dimethyl-4-propoxyphenyl)-2,2-dimethyl-1,2,3,4-tetrahydronaphthalen-1-yl)carbamate], the IC50 turned out to be 1.6 nM in data set [1] and 8.86 nM in data set [2] (Homo sapiens, Jurkat, 72 h). Also, in data set [3], the Kp at 4 h amounted to 1.82. Besides, the results for the concentration at 4 h in data set [3] (setting [4]) and in data set [3] (setting [5]) were 1680 ng/g and 951 ng/mL, respectively.
On to `CC1(C)Cc2cc(-c3ccc(OCC4CC4)cc3Cl)ccc2[C@@H]1NC(=O)O[C@@H]1CN2CCC1CC2` [Example 38, (S)-quinuclidin-3-yl((R)-5-(2-chloro-4-(cyclopropylmethoxy)phenyl)-2,2-dimethyl-2,3-dihydro-1H-inden-1-yl)carbamate], for which the half-inhibitory concentration (IC50) in data set [1] amounted to 0.05 nM; in data set [2] (Homo sapiens, Jurkat, 72 h), 3.2 nM. Further, in data set [3], the Kp at 4 h worked out at 5.6. The concentration at 4 h in data set [3] (setting [4]) was 3640 ng/g; in data set [3] (setting [5]), 670 ng/mL.
Regarding `CCOc1ccc(-c2ccc3c(c2)CC(C)(C)[C@H]3NC(=O)O[C@@H]2CN3CCC2CC3)c(Cl)c1` [Example 44, (S)-quinuclidin-3-yl((R)-5-(2-chloro-4-ethoxyphenyl)-2,2-dimethyl-2,3-dihydro-1H-inden-1-yl)carbamate], the IC50 came out at 0.17 nM in data set [1] and 2.3 nM in data set [2] (Homo sapiens, Jurkat, 72 h). For the same molecule, in data set [3], the Kp at 4 h was determined as 4.79. In addition, the concentration at 4 h stood at 8860 ng/g in data set [3] (setting [4]) and 1850 ng/mL in data set [3] (setting [5]).
For `CC(C)Oc1ccc(-c2cc3c(cc2F)[C@H](NC(=O)O[C@@H]2CN4CCC2CC4)C(C)(C)C3)cc1F` [Example 83, (S)-quinuclidin-3-yl((R)-6-fluoro-5-(3-fluoro-4-isopropoxyphenyl)-2,2-dimethyl-2,3-dihydro-1H-inden-1-yl)carbamate], in that order: 0.58 nM, 10.4 nM, 6.29, 7370 ng/g and 1170 ng/mL.
As for `Cc1cc(OC(C)C)ccc1-c1ccc2c(c1)CC(C)(C)[C@H]2NC(=O)O[C@@H]1CN2CCC1CC2` [Example 36, (S)-quinuclidin-3-yl((R)-5-(4-isopropoxy-2-methylphenyl)-2,2-dimethyl-2,3-dihydro-1H-inden-1-yl)carbamate], the IC50 in data set [1] was found to be 0.13 nM; in data set [2] (Homo sapiens, Jurkat, 72 h), 0.7 nM. Further, in data set [3], the Kp at 4 h amounted to 3.65. Besides, the concentration at 4 h came to 6650 ng/g in data set [3] (setting [4]) and 1830 ng/mL in data set [3] (setting [5]).
On to `CC(C)c1cccc(-c2ccc3c(c2)CCC(C)(C)[C@H]3NC(=O)O[C@@H]2CN3CCC2CC3)c1` [Example 162, (S)-quinuclidin-3-yl((R)-6-(3-isopropylphenyl)-2,2-dimethyl-1,2,3,4-tetrahydronaphthalen-1-yl)carbamate], for which the concentration for half-maximal inhibition (IC50) in data set [1] was determined as 7.55 nM; in data set [2] (Homo sapiens, Jurkat, 72 h), 1.4 nM. Further, the Kp at 4 h in data set [3] is 3.71. Moreover, the concentration at 4 h in data set [3] (setting [4]) came out at 3570 ng/g; in data set [3] (setting [5]) it was 967 ng/mL.
Regarding `CC1(C)Cc2cc(-c3ccc(OCC4CC4)c(Cl)c3)ccc2[C@@H]1NC(=O)O[C@@H]1CN2CCC1CC2` [Example 39, (S)-quinuclidin-3-yl((R)-5-(3-chloro-4-(cyclopropylmethoxy)phenyl)-2,2-dimethyl-2,3-dihydro-1H-inden-1-yl)carbamate], the IC50 worked out at 1.03 nM in data set [1] and 1.1 nM in data set [2] (Homo sapiens, Jurkat, 72 h). The Kp at 4 h in data set [3] stood at 9.85. For the same molecule, the figures for the concentration at 4 h in data set [3] (setting [4]) and in data set [3] (setting [5]) were 5510 ng/g and 564 ng/mL, respectively.
“(S)-quinuclidin-3-yl((R)-6-(2-chloro-4-isopropoxyphenyl)-7-fluoro-2,2-dimethyl-1,2,3,4-tetrahydronaphthalen-1-yl) carbamate [Example 199]”: the IC50 in data set [1] (setting [6]) came out at 0.192 nM. The IC50 in data set [2] (read-out: IC50) turned out to be 0.03 nM. Besides, in data set [3], the “Mean brain-plasma drug ratio at 4 hr” value is recorded as 1.165, the “Mean drug concentrations in brain tissue at 4 hr” value is given as 2689 ng/g and the “Mean drug concentrations in plasma at 4 hr” value turned out to be 2327.6 ng/mL.
For the molecule `CC(C)Oc1ccc(-c2cc3c(cc2F)[C@H](NC(=O)O[C@@H]2CN4CCC2CC4)C(C)(C)CC3)cc1` [Example 197, (S)-quinuclidin-3-yl((R)-7-fluoro-6-(4-isopropoxyphenyl)-2,2-dimethyl-1,2,3,4-tetrahydronaphthalen-1-yl)carbamate], the IC50 was found to be 0.2 nM in data set [1] and 0.94 nM in data set [2] (Homo sapiens, Jurkat, 72 h). Besides, in data set [3], the Kp at 4 h came out at 3.56. The concentration at 4 h in data set [3] (setting [4]) was 6690 ng/g; in data set [3] (setting [5]) it was 1880 ng/mL.
Regarding “(S)-quinuclidin-3-yl((R)-7-fluoro-2,2-dimethyl-6-(4-propoxyphenyl)-1,2,3,4-tetrahydronaphthalen-1-yl) carbamate [Example 177]”, the IC50 in data set [1] (setting [6]) worked out at 0.25 nM. In addition, the IC50 in data set [2] (read-out: IC50) was found to be 0.43 nM. Besides, in data set [3], the “Mean brain-plasma drug ratio at 4 hr” value is 5.444, the “Mean drug concentrations in brain tissue at 4 hr” value is reported as 4788.9 ng/g and the “Mean drug concentrations in plasma at 4 hr” value is listed as 880.7 ng/mL.
With `COc1ccc(-c2ccc3c(c2)CC(C)(C)[C@H]3NC(=O)O[C@@H]2CN3CCC2CC3)cc1F` [Example 18, (S)-quinuclidin-3-yl((R)-5-(3-fluoro-4-methoxyphenyl)-2,2-dimethyl-2,3-dihydro-1H-inden-1-yl)carbamate], the IC50 in data set [1] stood at 3.19 nM; in data set [2] (Homo sapiens, Jurkat, 72 h) it was 50.7 nM. Also, the Kp at 4 h in data set [3] came to 3.47. For the same molecule, the concentration at 4 h in data set [3] (setting [4]) came out at 3950 ng/g; in data set [3] (setting [5]), 1130 ng/mL.
For `CC(C)Oc1cccc(-c2ccc3c(c2)CCC(C)(C)[C@H]3NC(=O)O[C@@H]2CN3CCC2CC3)c1` [Example 165, (S)-quinuclidin-3-yl((R)-6-(3-isopropoxyphenyl)-2,2-dimethyl-1,2,3,4-tetrahydronaphthalen-1-yl)carbamate], in that order: 0.55 nM, 2.51 nM, 2.83, 2400 ng/g and 852 ng/mL.
On the same counts, the results for `CCCOc1ccc(-c2cc3c(cc2F)[C@H](NC(=O)O[C@@H]2CN4CCC2CC4)C(C)(C)C3)cc1Cl` [Example 87, (S)-quinuclidin-3-yl((R)-5-(3-chloro-4-propoxyphenyl)-6-fluoro-2,2-dimethyl-2,3-dihydro-1H-inden-1-yl)carbamate] are 0.77 nM, 36.2 nM, 8.57, 972 ng/g and 114 ng/mL.
On to `CCc1cccc(-c2ccc3c(c2)CCC(C)(C)[C@H]3NC(=O)O[C@@H]2CN3CCC2CC3)c1` [Example 158, (S)-quinuclidin-3-yl((R)-6-(3-ethylphenyl)-2,2-dimethyl-1,2,3,4-tetrahydronaphthalen-1-yl)carbamate], for which the IC50 in data set [1] worked out at 0.45 nM; in data set [2] (Homo sapiens, Jurkat, 72 h) it was 1.1 nM. The Kp at 4 h in data set [3] turned out to be 3.67. The concentration at 4 h in data set [3] (setting [4]) came out at 3720 ng/g; in data set [3] (setting [5]) it was 1020 ng/mL.
As to `CCOc1ccc(-c2cc3c(cc2F)[C@H](NC(=O)O[C@@H]2CN4CCC2CC4)C(C)(C)C3)c(Cl)c1` [Example 104, (S)-quinuclidin-3-yl((R)-5-(2-chloro-4-ethoxyphenyl)-6-fluoro-2,2-dimethyl-2,3-dihydro-1H-inden-1-yl)carbamate], the IC50 turned out to be 0.1 nM in data set [1] and 1.4 nM in data set [2] (Homo sapiens, Jurkat, 72 h). Also, the Kp at 4 h in data set [3] worked out at 3.76. Further, the concentration at 4 h was 5180 ng/g in data set [3] (setting [4]) and 1380 ng/mL in data set [3] (setting [5]).
In the case of `CCCOc1c(C)cc(-c2cc3c(cc2F)[C@H](NC(=O)O[C@@H]2CN4CCC2CC4)C(C)(C)CC3)cc1C` [Example 181, (S)-quinuclidin-3-yl((R)-6-(3,5-dimethyl-4-propoxyphenyl)-7-fluoro-2,2-dimethyl-1,2,3,4-tetrahydronaphthalen-1-yl)carbamate], the IC50 was 1.85 nM in data set [1] and 7.1 nM in data set [2] (Homo sapiens, Jurkat, 72 h). For the same molecule, the Kp at 4 h in data set [3] is 1.65. In addition, the concentration at 4 h was determined as 848 ng/g in data set [3] (setting [4]) and 510 ng/mL in data set [3] (setting [5]).
For `CCOc1ccc(-c2cc3c(cc2F)[C@H](NC(=O)O[C@@H]2CN4CCC2CC4)C(C)(C)C3)cc1Cl` [Example 86, (S)-quinuclidin-3-yl((R)-5-(3-chloro-4-ethoxyphenyl)-6-fluoro-2,2-dimethyl-2,3-dihydro-1H-inden-1-yl)carbamate], in that order: 0.756 nM, 45.8 nM, 5.65, 4790 ng/g and 852 ng/mL.
